Experimental data: patent US8563562B2, “Compounds having antiviral properties” (priority 2008, dated 2013)

How the values were obtained:
Type in all cases: cell-based
[1] = tested on: HIV-1 reporter virus, F121Y/T124K (FYTK) integrase; test: Luciferase reporter virus infectivity assay in 293T cells; settings: Human immunodeficiency virus 1, HEK-293T, 48 h, read-out: Luciferase assay EC50, FYTK
Text: (§1) Infectivity assays using reporter viruses derived from lentiviral vectors capable of a single round of infection were used to determine the activity (EC50) of compounds. The DNA used to generate viruses for infection was the full-length HIV-1 genome which had been envelope-deleted. In addition, a reporter gene (the firefly luciferase gene from Photinus pyralis) was cloned into the nef region of the HIV backbone for ease of assay readout. […]. Culture supernatants containing VSV-G pseudotyped virions were harvested 64 h post transfection, clarified by centrifugation to remove cell debris, and frozen at −70° C. until use.
(§2) HIV integrase was mutated within a shuttle vector (pGEM) containing the majority of the HIV-1 gag and pol sequence using site-directed mutagenesis to generate sequences that are known to confer resistance to published integrase inhibitors. These include but are not limited to mutations such as Q148H/G140S (in table #QHGS), N155H/E92Q (in table #NHEQ), F121Y/T124K (in table FYTK), Y143R (in table #Y143R) and the triple mutant Q148K/G140A/E138A. (in table#QKGAEA). The mutated integrase coding region within the shuttle vector was sequence verified, and then exchanged for the wild-type (WT) coding sequence in the reporter virus DNA backbone.
(§3) 293T cells were plated out at 12000 cells per well in CellView 96-well cell culture plates (Invitrogen) 16 h prior to compound addition. Compounds were preincubated with cells for 4 h at 37° C. prior to the addition of virus sufficient to generate approximately 10000 Luciferase light units (as measured by the Victor Wallace luminometer) upon assaying using the Bright-Glo™ reagent (Promega) according to the manufacturer's instructions at 48 h post infection.

[2] = tested on: HIV-1 reporter virus, N155H/E92Q (NHEQ) integrase; test: as above; settings: Human immunodeficiency virus 1, HEK-293T, 48 h, read-out: Luciferase assay EC50, NHEQ
Text: as §1, §2, §3

[3] = tested on: HIV-1 reporter virus, Q148H/G140S (QHGS) integrase; test: as above; settings: Human immunodeficiency virus 1, HEK-293T, 48 h, read-out: Luciferase assay EC50, QHGS
Text: as §1, §2, §3

[4] = tested on: HIV-1 reporter virus, Q148K/G140A/E138A (QKGAEA) integrase; test: as above; settings: Human immunodeficiency virus 1, HEK-293T, 48 h, read-out: Luciferase assay EC50, QKGAEA
Text: as §1, §2, §3

[5] = tested on: HIV-1 reporter virus, Y143R integrase; test: as above; settings: Human immunodeficiency virus 1, HEK-293T, 48 h, read-out: Luciferase assay EC50, Y143R
Text: as §1, §2, §3

[6] = tested on: HIV-1 reporter virus, wild-type (WT) integrase; test: as above; settings: Human immunodeficiency virus 1, HEK-293T, 48 h, read-out: Luciferase assay EC50, WT
Text: as §1, §2, §3

HIV WT integrase = test: PhenoScreen (Phenosense) assay, single-round luciferase pseudotyped HIV; settings: Human immunodeficiency virus 1, read-out: Activity, Phenosense assay, WT
Text: (§4) Monogram Bioscience' PhenoScreen assay allows the evaluation of integrase inhibitors for activity against a variety of HIV variants. The assay uses virus generated from 2 DNA constructs; one containing the HIV LTR, gag and pol regions, as well as a luciferase reporter gene in place of the viral envelope genes, and a second DNA construct containing the amphotrophic murine leukemia virus (A-MLV) envelope gene required to pseudotype virions and render them capable of entry into a target cell. Viruses generated using these constructs by transfection into a producer cell line such as 293T are capable of one-round of infection only. Successful integration events are directly proportional to the levels of luciferase expression 48 h after infection.
(§5) The viral variants chosen by the present inventors to screen integration inhibitors consist of mutations within the viral integrase enzyme known to confer resistance to a number of known integration inhibitors published in the literature. In particular, the viral variants containing the Q148H/G140S double mutation in integrase, and the N155H/E92Q double mutation in integrase, represent two of the more common viruses identified to arise in patients that are failing treatment with Isentress (Raltegravir, MK-0518).

[7] = tested on: HIV variant E92Q/N155H integrase; test: as above; settings: for EC50: Human immunodeficiency virus 1, read-out: Activity, Phenosense assay, E92Q/N155H
Text: as §4, §5

[8] = tested on: HIV variant G140S/Q148H integrase; test: as above; settings: Human immunodeficiency virus 1, read-out: Activity, Phenosense assay, G140S Q148H
Text: as §4, §5

[9] = tested on: HIV variant T125K/F121Y integrase; test: as above; settings: for EC50: Human immunodeficiency virus 1, read-out: Activity, Phenosense assay, T125K F121Y
Text: as §4, §5

[10] = tested on: HIV variant T661/S153Y integrase; test: as above; settings: Human immunodeficiency virus 1, read-out: Activity, Phenosense assay, T661 S153Y
Text: as §4, §5

[11] = tested on: HIV variant Y143R integrase; test: as above; settings: for EC50: Human immunodeficiency virus 1, read-out: Activity, Phenosense assay, Y143R
Text: as §4, §5

Row | SMILES | EC50 [1] [nM] | EC50 [2] [nM] | EC50 [3] [nM] | EC50 [4] [nM] | EC50 [5] [nM] | EC50 [6] [nM] | EC50 (HIV WT integrase) [nM] | EC50 [7] [nM] | improvement in activity over comparative example 3, E92Q/N155H ([7]; footnote b, E92Q/N155H mutant) | EC50 [8] [nM] | EC50 [9] [nM] | improvement in activity over comparative example 3, T125K F121Y ([9]; footnote a, T125K/F121Y mutant) | EC50 [10] [nM] | EC50 [11] [nM] | improvement in activity over comparative example 3, Y143R ([11]; footnote a, Y143R mutant)
1 | CN1CCN(c2cc(N3CCOCC3)cn3c(=O)c(O)c(-c4ncc(Cc5ccc(F)cc5)s4)nc23)S1(=O)=O [Example 99, 2-[5-(4-Fluoro-benzyl)-thiazol-2-yl]-3-hydroxy-9-(5-methyl-1,1-dioxo-1l6-[1,2,5]thiadiazolidin-2-yl)-7-morpholin-4-yl-pyrido[1,2-a]pyrimidin-4-one] | 1 to 100 | 1 to 100 | 1 to 100 | 100 to 1000 | 1 to 100 | 1 to 100 | – | – | – | – | – | – | – | – | –
2 | CN1CCN(c2cc(N3CCOCC3)cn3c(=O)c(O)c(-c4ncc(Cc5ccc(F)cc5)s4)nc23)C1=O [Example 101, 2-[5-(4-Fluoro-benzyl)-thiazol-2-yl]-3-hydroxy-9-(3-methyl-2-oxo-imidazolidin-1-yl)-7-morpholin-4-yl-pyrido[1,2-a]pyrimidin-4-one] | 1 to 100 | 1 to 100 | 1 to 100 | 100 to 1000 | 1 to 100 | 1 to 100 | – | – | – | – | – | – | – | – | –
3 | O=C1OCCN1c1cc(N2CCOCC2)cn2c(=O)c(O)c(-c3ncc(Cc4ccc(F)cc4)s3)nc12 [Example 103, 2-[5-(4-Fluoro-benzyl)-thiazol-2-yl]-3-hydroxy-7-morpholin-4-yl-9-(2-oxo-oxazolidin-3-yl)-pyrido[1,2-a]pyrimidin-4-one] | 1 to 100 | 1 to 100 | 1 to 100 | 100 to 1000 | 1 to 100 | 1 to 100 | – | – | – | – | – | – | – | – | –
4 | O=c1c(O)c(-c2ncc(Cc3ccc(F)cc3)o2)nc2c(I)cc(N3CCOCC3)cn12 [Example 4, 2-[5-(4-fluoro-benzyl)-oxazol-2-yl]-3-hydroxy-9-iodo-7-morpholin-4-yl-pyrido[1,2-a]pyrimidin-4-one] | – | – | – | – | – | – | 1 to 100 | 1 to 100 | b 2-fold improvement in activity over comparative example 3 | > 10000 | 1 to 100 | a 2.5-fold improvement in activity over comparative example 3 | 1 to 100 | 1 to 100 | a 2.5-fold improvement in activity over comparative example 3
5 | O=c1c(O)c(-c2ncc(Cc3ccc(F)cc3)s2)nc2ccc(N3CCOCC3)cn12 [Example 41, 2-[5-(4-Fluoro-benzyl)-thiazol-2-yl]-3-hydroxy-7-morpholin-4-yl-pyrido[1,2-a]pyrimidin-4-one] | – | 1 to 100 | > 1000 | > 1000 | – | 1 to 100 | 1 to 100 | 100 to 1000 | – | 100 to 1000 | 1 to 100 | – | 1 to 100 | 1 to 100 | –
6 | O=c1c(O)c(-c2ncc(Cc3ccc(F)cc3)o2)nc2ccc(N3CCOCC3)cn12 [Example 7, 2-[5-(4-fluoro-benzyl)-oxazol-2-yl]-3-hydroxy-7-morpholin-4-yl-pyrido[1,2-a]pyrimidin-4-one] | – | – | – | – | – | – | 1 to 100 | 100 to 1000 | – | 1000 to 10000 | 100 to 1000 | – | 1 to 100 | 1 to 100 | –
7 | O=c1c(O)c(-c2ncc(Cc3ccc(F)cc3)[nH]2)nc2ccc(N3CCOCC3)cn12 [Example 45, 5-(4-Fluoro-benzyl)-2-(3-hydroxy-7-morpholin-4-yl-4-oxo-4H-pyrido[1,2-a]pyrimidin-2-yl)-1H-imidazol-1-ium chloride] | 100 to 1000 | 100 to 1000 | 100 to 1000 | 100 to 1000 | 100 to 1000 | 1 to 100 | – | – | – | – | – | – | – | – | –
8 | O=c1c(O)c(-c2ncc(Cc3ccc(F)cc3)s2)nc2c(N3CCCS3(=O)=O)cc(N3CCOCC3)cn12 [Example 105, 9-(1,1-Dioxo-1l6-isothiazolidin-2-yl)-2-[5-(4-fluoro-benzyl)-thiazol-2-yl]-3-hydroxy-7-morpholin-4-yl-pyrido[1,2-a]pyrimidin-4-one] | 1 to 100 | 1 to 100 | 100 to 1000 | 100 to 1000 | 1 to 100 | 1 to 100 | – | – | – | – | – | – | – | – | –
